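Protocol summary: plate cells (96-well), add compound at 5 concentrations, incubate 48 h, interpolate endpoints linearly. The concentration for 50% growth inhibition is given as GI50.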 The source made the active and inactive calls. No stated cut-off is given here; in the data, active = GI50 up to about 1.1 µM and inactive = higher.

Test systems include UACC-257; DU-145; OVCAR-5; T47D; RPMI-8226; KM12; SN12C; SK-MEL-5; 786-0; HT-29; U-251; UACC-62; IGROV-1; UO-31; TK-10; OVCAR-3; Hs-578T; SF-539; A498; SK-MEL-2.
Common to all, as to test: growth of human tumour cells (NCI), 48 h

`O=S1(=O)c2ccccc2NC(=S)CC1c1ccccc1` (configuration not stated): the GI50 is 24.8 µM (inactive) with UACC-257; > 100 µM (inactive) in the assay on DU-145; > 100 µM (inactive) in the assay on OVCAR-5; > 100 µM (inactive) with T47D; > 100 µM (inactive) with RPMI-8226; > 100 µM (inactive) in the assay on KM12. For the same compound, the GI50 in the assay on SN12C, in the assay on SK-MEL-5, in the assay with 786-0, with HT-29, with U-251 and in the assay with UACC-62 was > 100 µM (inactive) in each case. In addition, the GI50 in the assay on IGROV-1, with UO-31, with TK-10, with OVCAR-3 and in the assay on Hs-578T was > 100 µM (inactive) throughout.

As to `C1CSCC2(COC2)CSCCSCC2(COC2)CS1`, the GI50 in the assay with UACC-257, in the assay with DU-145, in the assay with OVCAR-5, with T47D, in the assay with KM12 and in the assay on SN12C was > 100 µM (inactive) in each case. Besides, the GI50 in the assay on SK-MEL-5, in the assay with 786-0, in the assay with HT-29, in the assay on SF-539, in the assay with U-251 and with UACC-62 was > 100 µM (inactive) each time. For the same compound, the GI50 in the assay on IGROV-1, in the assay with UO-31, in the assay on TK-10 and in the assay with OVCAR-3 was > 100 µM (inactive) throughout.

With `CC(=O)O[C@H]1CC[C@@]2(C)C(=CC[C@@H]3[C@@H]2CC[C@]2(C)c4nc(Cl)ccc4C[C@@H]32)C1`, the GI50 in the assay with UACC-257 was 32.9 µM (inactive); in the assay with DU-145, 80.4 µM (inactive); in the assay with OVCAR-5 it was 38.1 µM (inactive); in the assay on T47D, 44.6 µM (inactive); in the assay with KM12, 43.3 µM (inactive); in the assay with SN12C, 41.7 µM (inactive). In addition, the GI50 is 30.8 µM (inactive) with SK-MEL-5; 32 µM (inactive) in the assay with 786-0; 36.8 µM (inactive) in the assay on HT-29; 87.3 µM (inactive) in the assay with A498; 97.1 µM (inactive) in the assay with U-251; 18.2 µM (inactive) in the assay with UACC-62. For the same compound, the GI50 in the assay on IGROV-1 is 89.9 µM (inactive); with UO-31, 64.6 µM (inactive); with TK-10, 54.3 µM (inactive); in the assay with OVCAR-3, 27.9 µM (inactive).

With `Cc1cccc2c1c(=O)c1c(O)cc(O)cc1n2C`, the GI50 with UACC-257, in the assay with SK-MEL-2, in the assay with DU-145, in the assay with OVCAR-5, in the assay with RPMI-8226 and with KM12 was > 100 µM (inactive) throughout. Besides, the GI50 with SN12C was > 100 µM (inactive); with SK-MEL-5, 34.2 µM (inactive); in the assay on 786-0 it was > 100 µM (inactive); in the assay on HT-29 it was 72.3 µM (inactive); in the assay on SF-539, > 100 µM (inactive); in the assay with A498, 59 µM (inactive). The GI50 in the assay with U-251 was > 100 µM (inactive); in the assay with UACC-62 it was 90.6 µM (inactive); with IGROV-1, > 100 µM (inactive); with TK-10 it was > 100 µM (inactive); with OVCAR-3, > 100 µM (inactive); in the assay on Hs-578T it was 33.8 µM (inactive).

For the compound `O=[N+]([O-])c1cc(-[n+]2cc([O-])on2)ccc1Cl`, the GI50 was 13.8 µM (inactive) in the assay with UACC-257; 21.5 µM (inactive) with SK-MEL-2; 16.9 µM (inactive) in the assay on DU-145; 18.1 µM (inactive) in the assay with OVCAR-5; 16.4 µM (inactive) with T47D; 24.3 µM (inactive) in the assay on RPMI-8226. In addition, the GI50 with KM12 is 22 µM (inactive); in the assay with SN12C, 16.3 µM (inactive); in the assay with SK-MEL-5, 10.2 µM (inactive); with 786-0, 21.3 µM (inactive); in the assay on HT-29, 15.1 µM (inactive); in the assay with U-251, 17 µM (inactive). Also, the GI50 with UACC-62 was 27.8 µM (inactive); in the assay on IGROV-1 it was 24.3 µM (inactive); with UO-31, 17.3 µM (inactive); in the assay with TK-10, 18.6 µM (inactive); with OVCAR-3, 37.3 µM (inactive); with Hs-578T, 13.6 µM (inactive).

`NNC1=N/C(=C\c2ccco2)C(=O)N1`: the GI50 was > 100 µM (inactive) with UACC-257; > 100 µM (inactive) with SK-MEL-2; > 100 µM (inactive) in the assay on OVCAR-5; > 100 µM (inactive) with T47D; 57.3 µM (inactive) in the assay with RPMI-8226; > 100 µM (inactive) with KM12. The GI50 with SN12C, in the assay with SK-MEL-5, with 786-0, in the assay with HT-29, in the assay on SF-539 and in the assay on A498 was > 100 µM (inactive) in each case. For the same compound, the GI50 in the assay on U-251 is 91.8 µM (inactive); in the assay with UACC-62, 33 µM (inactive); with IGROV-1, 65.2 µM (inactive); with UO-31 it was 59.4 µM (inactive); in the assay on TK-10 it was > 100 µM (inactive); in the assay with OVCAR-3 it was > 100 µM (inactive).

Take `CC1(C)O[C@@H](CP(c2ccccc2)c2ccccc2)[C@H](CP(c2ccccc2)c2ccccc2)O1`: the GI50 in the assay with UACC-257 is 6.98 µM (inactive); in the assay on DU-145 it was 11.7 µM (inactive); with OVCAR-5 it was 8.81 µM (inactive); with T47D, 3.76 µM (inactive); in the assay with RPMI-8226, 3.72 µM (inactive); in the assay with KM12, 2.85 µM (inactive). The GI50 is 4.11 µM (inactive) in the assay with SN12C; 5.74 µM (inactive) with SK-MEL-5; 6.15 µM (inactive) with 786-0; 0.675 µM (active) with HT-29; 7 µM (inactive) in the assay with SF-539; 12.6 µM (inactive) in the assay on A498. Besides, the GI50 was 3.66 µM (inactive) with U-251; 2.33 µM (inactive) with IGROV-1; > 10 µM (inactive) with UO-31; 14.2 µM (inactive) in the assay on TK-10; 0.384 µM (active) in the assay with OVCAR-3.

As to `O=C1C[C@H]2[C@H](c3ccc(Br)cc3)[C@H]3C(=O)c4ccccc4NC(=O)[C@@H]3[C@@]2(O)c2ccccc2N1`, the GI50 in the assay with UACC-257 is 20.2 µM (inactive); in the assay with DU-145, 24 µM (inactive); with OVCAR-5, 27.2 µM (inactive); in the assay on RPMI-8226, 9.82 µM (inactive); in the assay with KM12, 11.7 µM (inactive); in the assay on SN12C it was 24.5 µM (inactive). The GI50 with SK-MEL-5 was 19.3 µM (inactive); with 786-0 it was 19.4 µM (inactive); in the assay on HT-29 it was 10.7 µM (inactive); in the assay on SF-539, 19.5 µM (inactive); in the assay on A498 it was 8.34 µM (inactive); with U-251, 22.1 µM (inactive). For the same compound, the GI50 in the assay on UACC-62 was 24.8 µM (inactive); with IGROV-1, 8.22 µM (inactive); in the assay on TK-10, 17.1 µM (inactive); in the assay on OVCAR-3 it was 10.6 µM (inactive); with Hs-578T, 48 µM (inactive).

Source of the values: ChEMBL document CHEMBL1201862, “PubChem BioAssay data set” (2004).
